Laboratory results taken from the METLIN SMRT retention time set (Domingo-Almenara et al. 2019).

Assay: gradient 5% acetonitrile 3 min, to 50% in 2 min, to 85% in 15 min, held 3 min, 100 µL/min
Details: column: Zorbax Extend-C18 2.1 x 50 mm; eluents: water / acetonitrile, 0.1% formic acid
Procedure, shortened: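 Retention times of pure standards were taken from adduct peaks that were selected by computer and manually inspected. Over 3 months, mixtures of ~100 molecules were run by HPLC–quadrupole time-of-flight mass spectrometry in positive and negative ionization mode. The Zorbax Extend-C18 column (2.1 × 50 mm, 1.8 μm) ran at 100 μL/min in water and acetonitrile, each containing 0.1% formic acid, with 40 μL dead volume and 900 μL dwell volume.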

Compound | RP-LC retention time
C=CCNC(=O)C1CCN(C(=O)Nc2ccc(NC(=O)Nc3ccccc3F)cc2)CC1 | 710 s
Cc1cc(C)c2[nH]c3c(c(=O)c2c1)CN(CC(=O)Nc1ccc2c(c1)OCO2)CC3 | 626 s
Cc1ccnc(N2CCC(C(=O)NCCc3ccco3)CC2)n1 | 640 s
CCOC(=O)c1c(C)[nH]c(C(=O)N2CCC(CC(=O)N3CCCCC3)CC2)c1C | 741 s
CCOC(=O)c1c(C)[nH]c(C(=O)N2CCC(C(C)C(=O)N3CCN(c4ccccc4)CC3)CC2)c1C (stereo not given) | 871 s
COc1cccc(CCC(=O)N2CCc3nc[nH]c3C2)c1 | 575 s
CC(C)CCNC(=O)C1(C)Cn2nc(C(=O)N3CCN(C4CCCCC4)CC3)cc2C(=O)N1C (stereo not given) | 620 s
CCCN(CCC)C(=O)C1CCCN(c2ncnc3c2nc2n3CCCCC2)C1 (stereo not given) | 836 s
CC(C)Cn1cc(CCNS(=O)(=O)c2ccc(Br)s2)c2cccnc21 | 995 s
O=C(NCCCN1CCCC1)C1CCCN(c2nccnc2Sc2ccccc2)C1 (stereo not given) | 659 s
O=C(c1ccc(F)c(Cl)c1)N1CCN(c2cc(-c3cccnc3)[nH]n2)CC1 | 620 s
CC(C)n1c(N2CCN(C(=O)COc3ccc(F)cc3)CC2)cc(=O)n(C(C)C)c1=O | 904 s
O=C(NCCN1CCN(Cc2ccccc2)CC1)c1cc(=O)n2c(nc3ccccc32)s1 | 649 s
O=C(Nc1ccc(Cl)cc1)C1CCCN(S(=O)(=O)Cc2ccccc2)C1 (stereo not given) | 976 s
O=S(=O)(NCc1ccccc1C(F)(F)F)c1c[nH]c2ncccc12 | 785 s
CCCNC(=O)c1ccc2ncn(C)c(=O)c2c1 | 596 s
O=C(NCCCc1ccccc1)C1CCN(C(=O)c2ncn3c2COC(c2ccc(F)cc2)C3)CC1 (stereo not given) | 818 s
Cc1ccc(C2=NN3C(C2)c2ccccc2OC32CCCC2)o1 (stereo not given) | 942 s
CS(=O)(=O)N1CCC(OC2CCN(C(=O)NCc3ccc(F)cc3)CC2)CC1 | 730 s
CC(C)(C)C(O)CCNC(=O)C(=O)NCc1ccccc1 (stereo not given) | 740 s
O=C1COc2ccc(S(=O)(=O)N3CCCC3C(=O)N3CCN(c4ccccc4F)CC3)cc2N1 (stereo not given) | 790 s

Compound | RP-LC retention time
CC(C)Cn1cc(S(=O)(=O)Nc2cc(F)ccc2Cl)c2cccnc21 | 1020 s
O=C(c1ccncc1)N1CCc2cc(-c3csc(C4CC4)n3)ccc21 | 848 s
CCC(C)NC(=O)c1ccn[nH]1 (stereo not given) | 593 s
CCCn1c(=O)c(N2CCN(C(=O)CC(C)C)CC2)nc2ccccc21 | 1010 s
CCn1c(C2CCCN(C(=O)NCC(C)C)C2)nn(C)c1=O (stereo not given) | 628 s
CCOC(=O)c1c(C)oc2nc(C)nc(NCCCN(CC)c3cccc(C)c3)c12 | 812 s
Cc1cc(=O)n(CC(=O)Nc2ccc(F)cc2F)c(N2CCCCC2)n1 | 672 s
CCOC(=O)Cn1c(C2CC(=O)N(Cc3ccccc3)C2)nc2ccccc21 (stereo not given) | 749 s
CCCN(CC1CC1)C(=O)CCC1CCCN(S(=O)(=O)c2ccc(C)cc2)C1 (stereo not given) | 1120 s
CCOc1ccc(C(=O)N2CCC3(CC2)c2nccn2-c2ccccc2CN3C)cc1 | 632 s
Cc1sc(-c2noc(C(C)C)n2)cc1S(=O)(=O)N1CCC(C(=O)Nc2cccc(C#N)c2)CC1 | 1090 s
O=C(NCCc1ccccc1)Nc1cnc2c(c1)CCC2 | 536 s
Cc1cccc(C2CCCN2C(=O)c2c(Br)cnn2C)c1 (stereo not given) | 908 s
COc1ccccc1C(=O)NC1(C(F)(F)F)C(=O)N(C2CCCCC2)C(C)=C1C(C)=O (stereo not given) | 1080 s
Cc1ccccc1CNC(=O)c1cn(C)nc1S(=O)(=O)N1CCSCC1 | 887 s
CCOC(=O)c1csc(NC(=O)Cn2cnc(C)cc2=O)n1 | 598 s
CCC(=O)NCc1csc(C2CCCN(C(=O)CC(C)(C)C)C2)n1 (stereo not given) | 703 s
COC(=O)c1c(C)[nH]c(C(=O)N2CCCC(C(=O)NCc3cccc(Br)c3)C2)c1C (stereo not given) | 813 s
O=C(c1cccc(Cl)c1)N1CCN(S(=O)(=O)c2cc3c4c(c2)CCC(=O)N4CCC3)CC1 | 843 s
Cn1cc(S(=O)(=O)N2CCC(C(=O)N3CCCCC3)CC2)cc1C(=O)N1CCCC1 | 688 s
CNC(=O)C1CCCN(c2nc3ncn(CC(=O)NCc4ccccc4)c(=O)c3s2)C1 (stereo not given) | 620 s

Compound | RP-LC retention time
CCOc1cc(C(=O)N2CCCC(C)(C(=O)NCc3ccc(C)cc3)C2)cc(OCC)c1OCC (stereo not given) | 1010 s
CCCN1CCN(c2cc(C(=O)O)c3cc(NC(=O)c4ccccc4F)ccc3n2)CC1 | 601 s
CCC(=O)N1CCc2c(C(=O)NC(C)C)cccc21 | 687 s
CCC(=O)Nc1c(C)noc1/C=C\c1ccc(S(=O)(=O)Nc2ccc(S(N)(=O)=O)cc2)cc1 | 695 s
CCOC(=O)c1cccc(Nc2c(C(=O)N3CCCCC3CC)cnc3nc(C)ccc23)c1 (stereo not given) | 704 s
Cc1ccccc1S(=O)(=O)N1CCCC(C)(C(=O)NCc2ccccc2)C1 (stereo not given) | 944 s
CCCS(=O)(=O)c1nc2ccc(NS(=O)(=O)c3cccc(F)c3)cc2s1 | 918 s
CCS(=O)(=O)N1CCCc2cc(C(=O)N3CCOCC3)ccc21 | 679 s
Fc1ccc(CN2CCCCC2c2nc(-c3cnccn3)no2)c(F)c1 (stereo not given) | 738 s
COC(=O)c1c(C)[nH]c(C(=O)N2CCC(CC(=O)NCc3ccc(SC)cc3)CC2)c1C | 774 s
O=C(Nc1ccc(Br)cc1F)C1CCCN(C(=O)c2ccccc2F)C1 (stereo not given) | 943 s
Cc1cccc(C)c1Nc1c(-c2ccccc2F)nc2ccc(Br)cn12 | 893 s
CCCn1cc(CCNS(=O)(=O)c2ccc(C(C)(C)C)cc2)c2cccnc21 | 1070 s
CCNC(=O)C1CCCN(c2nc3ncn(CC(=O)Nc4ccc5c(c4)OCO5)c(=O)c3s2)C1 (stereo not given) | 649 s
CCn1nc(CNC(=O)c2cccs2)c2ccccc21 | 798 s
CC1CCN(C(=O)C2=CN(c3ccccc3)c3ccccc3S2(=O)=O)CC1 | 919 s
Cc1cc(F)ccc1NC(=O)c1cnc2c(c1)c(=O)n(C)c(=O)n2-c1ccccc1 | 854 s
CCCn1c(C)cnc1C1CN(S(=O)(=O)c2ccc(Cl)c(C)c2)C1 | 732 s
Cc1nc2nc(-c3ccco3)nn2c(N2CCN(c3ccccn3)CC2)c1C | 596 s
CCc1cccc(N2C=NS(=O)(=O)c3cccnc32)c1 | 836 s

The next lines start with the values.

RP-LC retention time | Compound
722 s | Cc1ccc(C)c(CNC(=O)c2ccc(-c3cccnc3)nc2)c1
783 s | COc1ccc(NC(=O)c2cc3c(s2)CN(C2CC2)C3)c(C)c1
1020 s | CCc1ccc(OCc2nc(CCN(C)C(=O)C3CCCC3)no2)cc1
996 s | Cc1ccc(Sc2nccnc2N2CCCC(C(=O)NC(C)C)C2)cc1 (stereo not given)
1200 s | COc1ccc(-n2c(=O)c(C(=O)Nc3ccccc3)c(O)c3cccnc32)cc1
821 s | CCN(CC)c1ncc2c(n1)CCC(C(=O)NCc1ccc(C(C)C)cc1)C2 (stereo not given)
1160 s | CCc1ccccc1NC(=O)c1nnn(-c2ccc3noc(-c4ccccc4)c3c2)c1C
699 s | COCCNC(=O)c1nc2ccccn2c1-c1ccc(F)cc1
804 s | COc1ccc(OC)c(NC(=O)NCC(=O)N2CCc3ccccc32)c1
754 s | Cn1cc(-c2nnc(SCC(=O)N3CCc4ccccc4C3)n2C)c(-c2ccccc2)n1
1120 s | CCN(CC)S(=O)(=O)c1ccc(Cl)c(-c2nnc(-c3ccccc3)o2)c1
592 s | COC(=O)c1ccc(NC(=O)C(=O)NCc2ccccn2)cc1
900 s | COc1ccc(N2CCN(c3cc(SCC(=O)Nc4ccc5c(c4)OCO5)ncn3)CC2)cc1
1150 s | Fc1cc(F)cc(-c2nnc(Cc3nc(-c4ccc(Br)cc4)no3)o2)c1
624 s | COC(=O)CNC(=O)Nc1ccc2nc(-c3ccc(F)cc3)cc(OC)c2c1
571 s | CCN(CC)c1cc(C)nc2nc(CN3CCN(c4ccc(OC)cc4)CC3)nn12
756 s | COc1cccc(CNC(=O)Cn2ccc3ccc(-c4nnc(C)o4)cc32)c1
670 s | Cc1cccc(NC(=O)Nc2ccc(-c3cn4ccc(C)nc4n3)cc2)c1
694 s | Cc1ccc(S(=O)(=O)Nc2ccc(C)n(CC(=O)O)c2=O)cc1
634 s | COCCNC(=O)CCCN1C(=O)c2ccccc2Sc2ncccc21
672 s | COc1ccc(SCC(=O)Nc2nnc(-c3ccno3)o2)cc1
917 s | O=C(NC1CCCCCC1)c1nnc(-c2ccc(S(=O)(=O)N3CCOCC3)cc2)o1
1020 s | Cn1cc(-c2ccc(Cl)cc2)cc1C(=O)NCc1ccco1
614 s | Cc1c(Cl)cccc1NC(=O)CCc1ccc2nc[nH]c2c1
1000 s | COc1ccc(C2Cn3cnc(-c4nc(-c5ccc6c(c5)OCO6)no4)c3CO2)cc1 (stereo not given)
1090 s | Cn1nnc2ccc(-c3noc(-c4ccc(Cl)cc4)n3)cc21
876 s | CCCCc1ccc(NC(=O)N2CCC(c3cc(N)on3)CC2)cc1
792 s | Cc1cc2cc(CNC(=O)C(C)Oc3ccccc3)ccc2[nH]1 (stereo not given)
